According to publication PMC9716151, “Synthesis, antimalarial, antileishmanial evaluation, and molecular docking study of some 3-aryl-2-styryl substituted-4(3H)-quinazolinone derivatives” (BMC Chemistry, 2022):
Values after ≈ are worked out from the molar mass of the structure shown. Like-named read-outs stand apart in the source and are kept apart here.

Assays:
[1] = tested on: Leishmania donovani promastigotes (clinical isolate); assay: in vitro antipromastigote activity test (AlamarBlue/resazurin); type: cell-based; conditions: for IC50: Leishmania donovani
Protocol: The antipromastigote activities of the synthesized compounds and the existing antileishmanial drugs (miltefosine and amphotericin B deoxycholate) were assessed using the clinical isolate of the Leishmania donovani strain, which is known to cause VL worldwide. The soluble, stable and non-toxic fluorescence dye, AlamarBlue® (resazurin) (Trek Diagnostic Systems, Inc., Cleveland, OH, USA) was used to quantitatively determine the viability of Leishmania donovani and compute the IC50 value of target compounds and the reference drugs. Only metabolically active cells can reduce resazurin and convert into fluorescent resorufin. Thus, the fluorescent intensity of resorufin is directly correlated to the number of viable Leishmania donovani cells. […] Inspired by its promising antileishmanial outcome, (E)-2-(4-nitrostyryl)-3-phenylquinazolin-4(3H)-one (6) was subjected to molecular docking study by fitting it in Lm-PTR1 active site to gain an insight about the types of interactions between the simulated enzyme and itself.
RPMI-1640, 10% heat-inactivated fetal calf serum (HIFCS), 1% penicillin–streptomycin, and 1% L-glutamine were supplied to make a complete culture medium. The Leishmania donovani isolate was grown first on Novy-MacNeal-Nicolle (NNN) medium and then in tissue-culture flasks containing RPMI 1640 medium supplemented with 10% HIFCS and 1% 100 IU penicillin/mL-100 µg/mL streptomycin solution at 22 ℃ for promastigotes.
Stock solutions of 10 mg/mL of the synthesized compounds were prepared by dissolving each compound in DMSO for the antileishmanial activity testing. Stock solutions were diluted using complete RPMI to obtain aliquots of 10 µg/mL. Then, three-fold serial dilution with complete RPMI gave the final six working concentrations (10, 3.33, 1.11, 0.37, 0.12, and 0.04 µg/mL) of each of the synthesized compounds. Amphotericin B deoxycholate and miltefosine, which were used as positive controls for the comparison of the antileishmanial activities of the test compounds, were also made in three-fold serial dilutions. All the prepared drugs were stored at − 20 °C and retrieved only during use.
Prior to the in vitro antipromastigote testing, serial concentrations of the target compounds were prepared by implementing three-fold dilutions. Then, in a 96-well microtiter plate, 100 µl of each of the three-fold serial dilutions of the target compounds were added in triplicate wells. Then 100 µl of Leishmania donovani suspension containing 3.0 × 10^6 promastigotes per milliliter were added in duplicates. In this experiment, the media and DMSO served as a negative control. Moreover, the concentration of DMSO was maintained below 1% of the target compound preparation to avoid the potential growth inhibition and interference effect of DMSO in the entire antipromastigote assay. Properly labelled plates which belong to the negative-control group, positive-control groups (treated with miltefosine and amphotericin B deoxycholate) and target compounds were then kept in a humidified atmosphere at 22 ℃ under 5% CO2 […]. To determine the viability Leishmania donovani isolates after the respective treatment, 10 µL of fluorochrome AlamarBlue® solution prepared by dissolving 12.5 mg resazurin in 100 mL of distilled water was added to each well and incubated for 4 h. Then, the fluorescence intensity of each well was determined using Victor3 Multilabel Counter (PerkinElmer, Waltham, MA, USA), at 530 nm and 590 nm, excitation and emission wavelengths, respectively. The IC50 values of the negative-control, positive-control groups and test-groups were determined from sigmoidal dose-response curves using GraphPad Prism 5.0 software (GraphPad Software, Inc., San Diego, CA, USA).

[2] = tested on: Plasmodium berghei ANKA strain; assay: four-day standard suppressive test in infected mice; type: in vivo, Plasmodium berghei (Swiss albino mice); conditions: for inhibition in vivo at 48.46 µmol/kg: Plasmodium berghei, 96 h, read-out: % Suppression; for % Parasitemia: smear on 5th day, mean ± SD
Source text: In the present study, the in vivo antimalarial activities of the synthesized compounds were investigated using a mouse model which is ideal to elucidate the prodrug effects of the target compounds triggered by metabolic activation and eradication of infection due to the potential involvement of the immune system. To achieve a steady state infection against the experimental animals, Plasmodium berghei ANKA strain served as a parasite in the experiment and the effects of the target compounds was assessed by the standard four-day suppressive test (often employed to evaluate early infections) in terms of percent inhibition of parasitemia which is recognized as most trustworthy parameter in vivo antimalarial studies. Herein, the standard antimalarial drug chloroquine phosphate (CQ) and equimolar amounts (48.46 µmol/Kg) of the target 3-aryl-2-styry substituted-4(3H)-quinazolinone derivatives were administered orally and the % suppression, parasitemia level, and the survival time of mice were compared against mice treated with a formulation containing a solution of 7% Tween 80, and 3% ethanol in distilled water (control group).
Swiss albino male mice of weight 20–32 g and age 6–8 weeks were used for the antimalarial activity and acute toxicity tests. Plasmodium berghei ANKA strain is used to infect the mice for a four-day suppressive test, were obtained from Biomedical Laboratory, Department of Biology, Faculty of Science, AAU. Leishmania donovani isolate used in this study was obtained from the Leishmania Diagnosis and Research Laboratory (LDRL) culture bank, School of Medicine, AAU.
The antimalarial activities of the target compounds were assessed by the four-day standard suppressive test against mice infected with Plasmodium berghei. The mice were acclimatized to the experimental conditions in the animal house of Biomedical Laboratory, Addis Ababa University, Faculty of Science, Department of Biology, for seven days prior to the in vivo antimalarial activity testing. In due course, the mice were subjected to live in standard cages with a pelleted diet and water. To trigger a steadily rising infection in mice, blood infected with Plasmodium berghei ANKA strain (approximately 20–30% level of parasitemia) was collected from a donor mice using a syringe supplemented with 0.5% trisodium citrate and diluted in physiological saline to […]. Then, 0.2 mL of inoculum (supposed to have about 2 × 10^7 parasites) was injected into each mouse through the intraperitoneal route to achieve the desired level of infection within a short period of time. After 2 h of post-infection, the mice were carefully weighed using a digital balance and randomly assigned into nine groups where each group contain five mice. Of which, mice assigned as a negative control (Group 1) subjected to the formulation composed of 7% Tween 80, and 3% ethanol in distilled water (2 mL/100 g). In addition, mice which belong to the positive control (Group 2) was treated with 25 mg/kg/day (0.04846 mmol/kg/day) of chloroquine phosphate (CQ). The remaining groups (3–9) were subjected to oral treatment with equimolar amounts of the respective target compounds for four consecutive days. Finally, a blood smear was taken from the tail of the mice in the 5th day (24 h after the last dose), air-dried, fixed with absolute methanol and treated with 6% Giemsa stain. The mean parasitemia level of each group (control and treatment groups) was computed microscopically by counting the number of erythrocytes in four fields (⁓100 erythrocytes per field).

[3] = tested on: male Swiss albino mice; assay: in vivo oral acute toxicity test; conditions: for mortality in mice: oral 50, 100, 200 and 300 mg/kg, within 24 h and entire study period (14 days); for visible signs of overt toxicity: oral up to 300 mg/kg, physical and behavioral observations, 14 days
Protocol: For this purpose, the mice were randomly allocated into six groups each containing six mice. The first five groups of mice (Group 1–5) received each target compound solubilized using 1% gum acacia at a dose of 10, 50, 100, 200 and 300 mg/kg, respectively. The mice in last group (group 6, served as a negative control) were orally treated with the solvent used to dissolve the target compounds (1% gum acacia) at a maximum dose of 1 mL/100 gm of body weight. Each mouse was then monitored for gross changes such as salivation, loss of appetite, lacrimation, hair erection, diarrhea, convulsions, death, and other signs of overt toxicity.

[4] = tested on: Leishmania major; parameters: method as in PMID 20235747; conditions: cited from earlier work
[5] = L. donovani promastigotes, 22 °C, AlamarBlue fluorescence, read-out: IC50 values, antipromastigote activity
[6] = mice infected with P. berghei ANKA, oral, 48.46 µmol/kg for four days (CQ 25 mg/kg)
[7] = L. donovani promastigotes, 22 °C, AlamarBlue fluorescence
[8] = read-out: IC50 values, antipromastigote activity, L. donovani promastigotes, 22 °C, AlamarBlue fluorescence
[9] = po, mice infected with P. berghei ANKA, oral, 48.46 µmol/kg for four days (CQ 25 mg/kg), versus negative control

| IC50 [1, 5] [µg/mL] | SMILES | inhibition in vivo at 48.46 µmol/kg [2] [%] | % Parasitemia [2, 6] [%] | IC50 values, antipromastigote activity [1, 7] [µg/mL] | IC50 [1, 8] [µg/mL] | inhibition in vivo at 48.46 µmol/kg [2, 9] [%] | Mean survival time [2, 6] [days] | mortality in mice [3] | visible signs of overt toxicity [3] | IC50, in vitro antileishmanial activity [4] [µg/mL] |
| --- | --- | --- | --- | --- | --- | --- | --- | --- | --- | --- |
| 0.046 ± 0.009 (≈ 0.0498 µM) | C[C@@H]1[C@H](O)[C@@H](C)/C=C/C=C/C=C/C=C/C=C/C=C/C=C/[C@H](O[C@@H]2O[C@H](C)[C@@H](O)[C@H](N)[C@@H]2O)C[C@@H]2O[C@](O)(C[C@@H](O)C[C@@H](O)[C@H](O)CC[C@@H](O)C[C@@H](O)CC(=O)O[C@H]1C)C[C@H](O)[C@H]2C(=O)O [Amphotericin B, amphotericin B deoxycholate, reference compound] |  |  |  |  |  |  |  |  |  |
|  | CCN(CC)CCCC(C)Nc1ccnc2cc(Cl)ccc12 (stereo not drawn) [CQ, chloroquine phosphate, reference compound] | 100 | 0 |  |  |  |  |  |  |  |
|  | O=c1c2ccccc2nc(/C=C/c2ccc([N+](=O)[O-])cc2)n1-c1ccccc1 [Compound 6, (E)-2-(4-nitrostyryl)-3-phenylquinazolin-4(3H)-one] |  | 39.22 ± 0.7 | 0.021 ± 0.008 (≈ 0.0569 µM) | 0.0212 (≈ 0.0574 µM) | < 50 | 6.5 ± 0.3 | none of the compounds caused mortality | no visible signs of overt toxicity |  |
|  | Cc1ccccc1-n1c(/C=C/c2ccc(Cl)cc2)nc2ccccc2c1=O [Compound 7, (E)-2-(4-chlorostyryl)-3-o-tolylquinazolin-4(3H)-one] |  | 35.69 ± 0.69 |  | 3.25 ± 0.282 (≈ 8.71 µM) | < 50 | 6.9 ± 0.5 |  |  |  |
|  | CC(=O)Oc1ccc(/C=C/c2nc3ccccc3c(=O)n2-c2ccccc2C)cc1 [Compound 8, 4-((1E)-2-(3,4-dihydro-4-oxo-3-o-tolylquinazolin-2-yl)vinyl)phenyl acetate] |  | 19.57 ± 0.77 |  | 3.33 ± 0.126 |  | 9.4 ± 0.37 | none of the compounds caused mortality | no visible signs of overt toxicity |  |
|  | Cc1ccccc1-n1c(/C=C/c2ccc(O)cc2)nc2ccccc2c1=O [Compound 11, (E)-2-(4-hydroxystyryl)-3-o-tolylquinazolin-4(3H)-one] |  | 25.27 ± 0.76 |  | 0.185 ± 0.026 (≈ 0.522 µM) | > 50 | 7.3 ± 0.54 |  |  |  |
|  | Cc1ccc(-n2c(/C=C/c3ccc(O)cc3)nc3ccccc3c2=O)cc1 [Compound 12, (E)-2-(4-hydroxystyryl)-3-p-tolylquinazolin-4(3H)-one] |  | 32 ± 0.5 |  | 1.84 ± 0.168 (≈ 5.2 µM) | > 50 | 7.6 ± 1.12 |  |  |  |
|  | COc1cc(/C=C/c2nc3ccccc3c(=O)n2-c2ccc(C)cc2)ccc1O [Compound 13, (E)-2-(4-hydroxy-3-methoxystyryl)-3-p-tolylquinazolin-4(3H)-one] |  | 24.13 ± 0.29 |  | 2.27 ± 0.214 (≈ 5.89 µM) | > 50 | 7.9 ± 0.3 |  |  |  |
|  | O=c1c2ccccc2nc(-c2ccccc2)n1Cc1ccccc1 [III] |  |  |  |  |  |  |  |  | 48.91 (≈ 157 µM) |
| 3.19 (≈ 7.83 µM) | CCCCCCCCCCCCCCCCOP(=O)([O-])OCC[N+](C)(C)C [Miltefosine, hexadecylphosphocholine, reference compound] |  |  | 3.191 ± 0.194 (≈ 7.83 µM) |  |  |  |  |  |  |

| SMILES | IC50 [1, 5] [µg/mL] | inhibition in vivo at 48.46 µmol/kg [2] [%] | % Parasitemia [2, 6] [%] | IC50 values, antipromastigote activity [1, 7] [µg/mL] | IC50 [1, 8] [µg/mL] | inhibition in vivo at 48.46 µmol/kg [2, 9] [%] | Mean survival time [2, 6] [days] | mortality in mice [3] | visible signs of overt toxicity [3] | IC50, in vitro antileishmanial activity [4] [µg/mL] |
| --- | --- | --- | --- | --- | --- | --- | --- | --- | --- | --- |
| COc1cc(/C=C/c2nc3ccccc3c(=O)n2-c2ccc(C)cc2)ccc1OC(C)=O [Compound 10, 4-((1E)-2-(3,4-dihydro-4-oxo-3-p-tolylquinazolin-2-yl)vinyl)-2-methoxyphenyl acetate] | 0.196 ± 0.042 |  | 16.85 ± 0.39 |  |  |  | 9.8 ± 0.24 | none of the compounds caused mortality | no visible signs of overt toxicity |  |
